Data published in US20260015341A1, “PI3K INHIBITOR, PREPARATION METHOD THEREFOR, AND USE THEREOF” (HINOVA PHARMACEUTICALS INC., priority 2022, published 2026).

Columns and labels:
T47D cells = experiment: Inhibitory effects on the proliferation of T47D cells (CellTiter-Glo); assay type: cell-based; settings: 7 days
Procedure: Experimental Example 3: Experiment of Inhibitory Effects on the Proliferation of T47D Cells
T47D cells (ATCC. #HTB-133) were diluted with RPMI 1640 (Gibco #22400-089) containing 10% FBS (Hyclone #SH30084.03), seeded in 96-well plate (Biosharp #BS-MP-96W) at 1000 cells/well, and then cultured for 24 h. Then, gradiently diluted compounds were added (starting at a final concentration of 10 μM, 3-fold dilution, 9 dose concentrations), and the final volume was adjusted to 150 μL/well. The plate was incubated at 37° C. under […] for 7 days. After the cultivation was completed, CellTiter-Glo reagent (Promega #G7573) was added at 75 μL/well, and then the plate was further incubated at 25° C. for 10 min. After that, the chemiluminescence value was read using an instrument.
The results are shown in the T47D IC50 column in Table 2.

MCF-10A cells = experiment: Inhibitory effects on the proliferation of MCF-10A cells (CCK8); assay type: cell-based; settings: 6 days
Procedure: Experimental Example 2: Experiment of Inhibitory Effects on the Proliferation of MCF-10A Cells
MCF-10A cells (Cobioer Bio. #CBP60419MCF) were diluted with complete medium (Cobioer Bio. #CBP60419), seeded in 96-well plate (Corning #3599) at 500 cells/well, and then cultured for 24 h. Then, gradiently diluted compounds were added (starting at a final concentration of 10 μM, 3-fold dilution, 9 dose concentrations), and the final volume was adjusted to 100 μL/well. The plate was incubated at 37° C. under 5% CO2 for 6 days. After the cultivation was completed, CCK8 reagent (Signalway Antibody Bio. #CP002) was added at 10 μL/well, and then the plate was further incubated at 37° C. under 5% CO2 for 2-3 hours. The OD450 nm value was obtained by a microplate reader.
The results are shown in the MCF-OA IC50 column in Table 2.

[1] = biological target: PI3Kα[WT]/[E542K]/[E545K]/[H1047R]/PI3Kβ/γ/δ; experiment: PI3K enzyme activity assay (ADP-Glo); assay type: biochemical; settings: PI3K kinase reaction, isoform not given
Procedure: Experimental Example 1: PI3Kα[WT]/[E542K]/[E545K]/[H1047R]/PI3Kβ/γ/δ Enzyme Activity Assay
PI3Kα[WT], PI3Kα[E542K], PI3Kα[E545K], PI3Kα[H1047R], PI3Kβ, PI3Kγ and PI3Kδ kinase reaction was performed in 384-well plate (PerkinElmer, #6008280), with a reaction system of 4 μL. PI3Kα[WT] enzyme solution (Promega, #V1721) or PI3Kα[E542K] enzyme solution (CarnaBio, #11-413-20N) or PI3Kα[E545K] enzyme solution (CarnaBio, #11-414-20N) or PI3Kα[H1047R] enzyme solution (Promega, #V1741) or PI3Kβ enzyme solution (Promega, #V1751) or PI3Kγ enzyme solution (ThermoFisher, #PV4786) or PI3Kδ enzyme solution (ThermoFisher, #PV6451) were added to 384-well plate, and then gradiently diluted compounds were added (starting at a final concentration of 10 μM, 3-fold dilution, 10 doses), followed by adding PIP2: 3PS (Promega, #V1701) and ATP solution (Promega, #V915B) to the plate. After incubation at 25° C. for 1 h, ADP-Glo reagent buffer (Promega, #V9102) was added to each well. The plate was sealed and incubated at 25° C. for 40 min, and then 10 μL of ADP-Glo detection buffer (Promega, #V9102) was added to each well. After incubating at 25° C. for 40 min, the chemiluminescence value was read using an instrument.
The experimental results are shown in the ADP Glo IC50 column in Table 2.

IC50 (T47D cells; Homo sapiens, 168 h) [µM]	IC50 [1] [µM]	IC50 (T47D cells) [µM]	Structure (SMILES)	IC50 (MCF-10A cells; Homo sapiens, 144 h) [µM]	IC50 (MCF-10A cells) [µM]
< 1			Cc1cc([C@@H](C)Nc2ccc(Cl)nc2C(=O)O)c2nc(-c3ccncc3)n(C)c(=O)c2c1 [Compound 109, (R)-6-chloro-3-((1-(3,6-dimethyl-4-oxo-2-(pyridin-4-yl)-3,4-dihydroquinazolin-8-yl)ethyl)amino)pyridinecarboxylic Acid]	> 5	
	1 to 5		Cc1cc([C@@H](C)Nc2ccccc2C(=O)O)c2nc(N3CCC(C)(C)CC3)[nH]c(=O)c2c1 [Compound 4, (R)-2-((1-(2-(4,4-dimethylpiperidin-1-yl)-6-dimethyl-4-oxo-3,4-dihydroquinazolin-8-yl)ethyl)amino)benzoic Acid]		
	< 1		Cc1cc([C@@H](C)Nc2ccc(Cl)nc2C(=O)O)c2nc(-c3ncc(Cl)cn3)n(C)c(=O)c2c1 [Compound 96]		
			COC(=O)c1nc(Cl)ccc1N[C@H](C)c1cc(C)cc2c(=O)nc(-c3ccc(C(F)(F)F)nc3)n(C)c12 [Compound 113]	> 5	
< 1			[2H]C([2H])([2H])n1c(-c2cccc(F)c2)nc2c([C@@H](C)Nc3ccc(Cl)nc3C(=O)O)cc(C)cc2c1=O [Compound 93]	> 5	
1 to 5			[2H]C([2H])([2H])n1c(-c2cccc(F)c2)nc2c([C@@H](C)Nc3ccc(Cl)nc3C(=O)O)cc(F)cc2c1=O [Compound 89]	> 5	
< 1			Cc1cc([C@@H](C)Nc2ccccc2C(N)=O)c2oc(-c3ccc(F)cc3F)cc(=O)c2c1 [Compound 47]	> 5	
1 to 5			C[C@@H](Nc1cccc(F)c1C(=O)O)c1cc(F)cc2c(=O)n(C)c(-c3ccccc3)nc12 [Compound 79]	> 5	
		1 to 5	Cc1cc([C@@H](C)Nc2ccccc2C(O)C(F)(F)F)c2oc(-c3ccc(F)cc3)cc(=O)c2c1 (single isomer, unassigned) [Compound 68]		> 5
			COc1ccc(-c2nc3c([C@@H](C)Nc4ccc(Cl)nc4C(=O)O)cc(C)cc3c(=O)n2C)cc1 [Compound 111]	> 5	
> 5			Cc1cc([C@@H](C)Nc2ccccc2C(=O)O)c2nc(-c3c(C)noc3C)n(C)c(=O)c2c1 [Compound 51]	> 5	
< 1			Cc1cc([C@@H](C)Nc2ccc(F)cc2C(=O)O)c2nc(-c3ccc(F)cn3)n(C)c(=O)c2c1 [Compound 87]	> 5	
< 1			COC(=O)c1nc(Cl)ccc1NC(C)c1cc(C)cc2c(=O)n(C)c(-c3ccc(OC)cc3)nc12 (stereo not shown) [Compound 106]	> 5	
1 to 5			COC(=O)c1occc1N[C@H](C)c1cc(C)cc2c(=O)cc(-c3ccc(F)cc3F)oc12 [Compound 63, methyl (R)-3-((1-(2-(2,4-difluorophenyl)-6-methyl-4-oxo-4H-chromen-8-yl)ethyl)amino)furan-2-carboxylate]	> 5	
1 to 5			Cc1cc([C@@H](C)Nc2ccccc2C(O)C(F)(F)F)c2oc(-c3ccc(F)cc3)cc(=O)c2c1 (single isomer, unassigned) [Compound 67]	> 5	
1 to 5			C[C@@H](Nc1ccccc1C(=O)O)c1cc(F)cc2c(=O)n(C)c(-c3ccc(F)cn3)nc12 [Compound 76]	> 5	
			COc1ccc(-c2nc3c([C@@H](C)Nc4ccc(Cl)nc4C(N)=O)cc(C)cc3c(=O)n2C)cc1 [Compound 112]	1 to 5	
> 5			C[C@@H](Nc1sccc1C(=O)O)c1cc(F)cc2c(=O)n(C)c(-c3ccc(F)cn3)nc12 [Compound 84]	> 5	
> 5			Cc1cc(C(C)N2CCc3ccccc32)c2oc(-c3ccc(F)cc3F)cc(=O)c2c1 (stereo not shown) [Compound 116, 2-(2,4-difluorophenyl)-8-(1-(indolin-1-yl)ethyl)-6-methyl-4H-benzopyran-4-one]	> 5	

IC50 (T47D cells; Homo sapiens, 168 h) [µM]	IC50 [1] [µM]	IC50 (T47D cells) [µM]	Structure (SMILES)	IC50 (MCF-10A cells; Homo sapiens, 144 h) [µM]	IC50 (MCF-10A cells) [µM]
> 5			C[C@@H](Nc1cc(F)ccc1C(=O)O)c1cc(F)cc2c(=O)n(C)c(-c3ccc(F)cn3)nc12 [Compound 81]	> 5	
1 to 5			Cc1cc([C@@H](C)Nc2ccccc2C(=NO)C(F)(F)F)c2oc(-c3ccc(F)cc3F)cc(=O)c2c1 (stereo in doubt) [Compound 64, (R,E)-2-(2,4-difluorophenyl)-6-methyl-8-(1-((2-(2,2,2-trifluoro-1-(hydroxyimino)ethyl)phenyl)amino)ethyl)-4H-chromen-4-one]	> 5	
< 1			Cc1cc([C@@H](C)Nc2ccc(Cl)cc2C(=O)O)c2nc(-c3ccc(F)cn3)n(C)c(=O)c2c1 [Compound 90]	> 5	
< 1			COc1ccc(-c2nc3c(C(C)N)cc(C)cc3c(=O)n2C)cc1 (stereo not shown) [Compound 107]	> 5	
1 to 5			CCSc1nc2c([C@@H](C)Nc3ccc(Cl)nc3C(=O)OC)cc(F)cc2c(=O)n1C [Compound 105]	> 5	
< 1			C[C@@H](Nc1ccc(Cl)nc1C(=O)O)c1cc(Cl)cc2c(=O)n(C)c(-c3ncc(Cl)cn3)nc12 [Compound 97]	1 to 5	
1 to 5			Cc1cc([C@@H](C)Nc2ccc(Cl)nc2C(=O)OC(C)(C)C)c2nc(-c3c(C)noc3C)n(C)c(=O)c2c1 [Compound 50]	> 5	
< 1			[2H]C([2H])([2H])n1c(-c2ccc(C(F)(F)F)nc2)nc2c([C@@H](C)Nc3ccc(Cl)nc3C(=O)O)cc(C)cc2c1=O [Compound 94]	> 5	
< 1			C[C@@H](Nc1ccc(Cl)nc1C(=O)O)c1cc(Cl)cc2c(=O)n(C)c(-c3ccc(F)cn3)nc12 [Compound 83]	> 5	
< 1			[2H]C([2H])([2H])n1c(-c2ccc(F)cn2)nc2c([C@@H](C)Nc3ccc(F)cc3C(=O)O)cc(F)cc2c1=O [Compound 91]	> 5	
< 1			C[C@@H](Nc1ccc(Cl)nc1C(=O)O)c1cc(Cl)cc2c(=O)n(C)c(-c3ncccn3)nc12 [Compound 98]	> 5	
> 5			Cc1cc([C@@H](C)N[S@+]([O-])C(C)(C)C)c2nc(-c3ccncc3)n(C)c(=O)c2c1 [Compound 108]	> 5	
			COC(=O)c1nc(Cl)ccc1N[C@@H](C)c1cc(C)cc2c(=O)nc(-c3ccc(C(F)(F)F)nc3)n(C)c12 [Compound 114]	> 5	
> 5			[2H]C([2H])([2H])n1c(-c2ccc(F)cn2)nc2c([C@@H](C)Nc3ccc(Cl)cc3C(=O)O)cc(F)cc2c1=O [Compound 88, (R)-5-chloro-2-((1-(6-fluoro-2-(5-fluoropyridin-2-yl)-3-deuteromethyl-4-oxo-3,4-dihydroquinazolin-8-yl)ethyl)amino)benzoic Acid]	> 5	
1 to 5			Cc1cc([C@@H](C)Nc2ccc(Cl)nc2C(=O)O)c2nc(-c3ccc(C(F)(F)F)cn3)n(C)c(=O)c2c1 [Compound 75]	> 5	
> 5			C[C@@H](Nc1c(C(=O)O)cnn1C)c1cc(Cl)cc2c(=O)n(C)c(-c3ccc(F)cn3)nc12 [Compound 86]	> 5	
1 to 5			Cc1cc([C@@H](C)Nc2ccccc2C(=O)OC(C)(C)C)c2nc(-c3c(C)noc3C)n(C)c(=O)c2c1 [Compound 49]	> 5	
< 1			Cc1cc([C@@H](C)Nc2ccc(Cl)nc2C(N)=O)c2nc(-c3ccncc3)n(C)c(=O)c2c1 [Compound 110]	> 5	
1 to 5			Cc1cc([C@@H](C)Nc2cc(F)ccc2C(=O)O)c2nc(-c3ccc(F)cn3)n(C)c(=O)c2c1 [Compound 78]	> 5	
